Data reported in the supplement of paper PMC10307832.

What was measured:
Assay in all cases: relative viability (nuclei count vs DMSO), 5 days (fraction); higher = more cells survive
Omipalisib + Bortezomib = compound: COc1ncc(-c2ccc3nccc(-c4ccnnc4)c3c2)cc1NS(=O)(=O)c1ccc(F)cc1F [Omipalisib] + CC(C)C[C@H](NC(=O)[C@H](Cc1ccccc1)NC(=O)c1cnccn1)B(O)O [Bortezomib] (partner 0.002 µM)
Outline: (§1)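 Lung cancer cell lines were pin-tool dosed in 1536-well plates on the day after seeding, with either a lone drug or a fixed anchor-drug dose plus five library-drug doses (not always all listed) in √10 steps. Nuclei were counted on 4× images after 5 days. Relative viability is the ratio of treated-well to vehicle-well nuclei counts, with each value a median of duplicate plates.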

Omipalisib + AZD7762 = compound: COc1ncc(-c2ccc3nccc(-c4ccnnc4)c3c2)cc1NS(=O)(=O)c1ccc(F)cc1F [Omipalisib] + NC(=O)Nc1cc(-c2cccc(F)c2)sc1C(=O)N[C@H]1CCCNC1 [AZD7762] (partner 0.2 µM)
Outline: as §1

Omipalisib + Decitabine = compound: COc1ncc(-c2ccc3nccc(-c4ccnnc4)c3c2)cc1NS(=O)(=O)c1ccc(F)cc1F [Omipalisib] + Nc1ncn([C@H]2C[C@H](O)[C@@H](CO)O2)c(=O)n1 [Decitabine] (partner 2 µM)
Outline: as §1

Omipalisib + Vorinostat = compound: COc1ncc(-c2ccc3nccc(-c4ccnnc4)c3c2)cc1NS(=O)(=O)c1ccc(F)cc1F [Omipalisib] + O=C(CCCCCCC(=O)Nc1ccccc1)NO [Vorinostat] (partner 1 µM)
Outline: as §1

Omipalisib + Olaparib = compound: COc1ncc(-c2ccc3nccc(-c4ccnnc4)c3c2)cc1NS(=O)(=O)c1ccc(F)cc1F [Omipalisib] + O=C(c1cc(Cc2n[nH]c(=O)c3ccccc23)ccc1F)N1CCN(C(=O)C2CC2)CC1 [Olaparib] (partner 8 µM)
Outline: as §1

Omipalisib + Navitoclax = compound: COc1ncc(-c2ccc3nccc(-c4ccnnc4)c3c2)cc1NS(=O)(=O)c1ccc(F)cc1F [Omipalisib] + CC1(C)CCC(c2ccc(Cl)cc2)=C(CN2CCN(c3ccc(C(=O)NS(=O)(=O)c4ccc(N[C@H](CCN5CCOCC5)CSc5ccccc5)c(S(=O)(=O)C(F)(F)F)c4)cc3)CC2)C1 [Navitoclax] (partner 0.5 µM)
Outline: as §1

Cell Line	relative viability (Omipalisib + Bortezomib; first compound 0.0003 µM)	relative viability (Omipalisib + Bortezomib; first compound 0.003 µM)	relative viability (Omipalisib + Bortezomib; first compound 0.03 µM)	relative viability (Omipalisib + AZD7762; first compound 0.0003 µM)	relative viability (Omipalisib + AZD7762; first compound 0.003 µM)	relative viability (Omipalisib + AZD7762; first compound 0.03 µM)	relative viability (Omipalisib + Decitabine; first compound 0.0003 µM)	relative viability (Omipalisib + Decitabine; first compound 0.003 µM)	relative viability (Omipalisib + Decitabine; first compound 0.03 µM)	relative viability (Omipalisib + Vorinostat; first compound 0.0003 µM)	relative viability (Omipalisib + Vorinostat; first compound 0.003 µM)	relative viability (Omipalisib + Vorinostat; first compound 0.03 µM)	relative viability (Omipalisib + Olaparib; first compound 0.0003 µM)	relative viability (Omipalisib + Olaparib; first compound 0.003 µM)	relative viability (Omipalisib + Olaparib; first compound 0.03 µM)	relative viability (Omipalisib + Navitoclax; first compound 0.0003 µM)	relative viability (Omipalisib + Navitoclax; first compound 0.003 µM)	relative viability (Omipalisib + Navitoclax; first compound 0.03 µM)
LCLC-103H	0.943	0.891	0.732	0.747	0.623	0.402	0.69	0.639	0.4	0.848	0.554	0.43	0.781	0.726	0.397			
LK-2				0.382	0.148	0.134	0.235	0.201	0.147	0.276	0.18	0.154	0.747	0.29	0.238	0.595	0.285	0.343
NCI-H358				0.43	0.366	0.244	0.199	0.174	0.141	0.573	0.546	0.272	0.544	0.38	0.324			
NCI-H520	0.465	0.254	0.171				0.51	0.369	0.233	0.623	0.458	0.214	0.295	0.294	0.139	0.972	0.714	0.292
NCI-H650	0.749	0.501	0.293	0.817	0.766	0.7	0.375	0.257	0.321	0.325	0.337	0.186	0.366	0.33	0.245			
NCI-H661	0.69	0.595	0.314				0.522	0.453	0.422	0.78	0.782	0.785	0.744	0.659	0.604			
NCI-H1395				0.424	0.398	0.379	0.661	0.625	0.567	0.716	0.525	0.523	0.501	0.421	0.371	1.35	0.991	0.665
NCI-H1650	0.197	0.184	0.2				0.272	0.395	0.42	0.501	0.287	0.379	0.774	0.807	0.576	1.18	1.05	0.409
NCI-H1792	0.872	0.927	0.398	0.467	0.347	0.165	0.428	0.37	0.101				0.382	0.0789	0.0824	0.583	0.515	0.235
NCI-H1793				0.402	0.215	0.263	0.398	0.282	0.214	0.649	0.438	0.231	0.576	0.368	0.196	0.368	0.29	0.204
NCI-H1944				0.406	0.345	0.262	0.384	0.356	0.239	0.469	0.359	0.29	0.334	0.349	0.203	0.975	0.775	0.474
NCI-H2009	0.979	0.986	0.584				0.355	0.389	0.324	0.674	0.689	0.573	0.705	0.511	0.378	1.22	1.14	0.897
NCI-H2023	0.906	0.487	0.301				0.177	0.215	0.16	0.356	0.454	0.161	0.428	0.414	0.185	0.959	0.633	0.313
NCI-H2170				0.684	0.376	0.375	0.446	0.339	0.29	0.716	0.51	0.418	0.534	0.456	0.226	0.414	0.28	0.222
NCI-H2228	0.905	0.577	0.404							0.75	0.498	0.162	0.698	0.441	0.179	0.972	0.581	0.204
SK-LU-1	1.1	0.724	0.511				0.633	0.548	0.494	0.758	0.561	0.535	0.455	0.304	0.366	0.926	0.237	0.625
SK-MES-1							0.363	0.262	0.241	1.02	0.739	0.526	0.674	0.52	0.26	1.21	0.836	0.464
SW 1573	0.885	0.818	0.411				0.306	0.241	0.239	0.236	0.456	0.315	0.319	0.332	0.203	0.921	0.745	0.475
UMC-11	0.678	0.556	0.643				0.491	0.397	0.527	0.416	0.281	0.264	0.332	0.548	0.376	0.31	0.277	0.265
